In patent US6355799B1, “Substituted benzene compounds, process for their preparation, and herbicidal and defoliant compositions containing them” (ISK Americas Incorporated, priority 1997, dated 2002):

Assays:
Type in all cases: in vivo
[1] = system: upland rice (Oryza sp., var. Tebonnet, RICE); assay: Pre-emerge test, crop safety; settings: crop damage rating 0-100, 14 days after application
In short: (§1)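 Compounds in acetone were track-sprayed at 187 l/ha, 15–1000 g ai/ha, onto sandy loam pots. Pre-emerge seeds were sown one day before spraying, with surface watering afterwards. Post-emerge plants were at the 2–3 leaf stage and sprayed with 0.25% v/v non-ionic surfactant. Injury was rated 0–100 at 14 days.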

[2] = system: field corn (Zea mays L., var. Dekalb 535, CORN); assay: Pre-emerge test, crop safety; settings: crop damage rating 0-100, 14 days after application
In short: as §1

[3] = system: lambsquarters (Chenopodium album, CHEAL); assay: Post-emerge test, greenhouse herbicide activity screening; settings: post-emerge, 14 days after application, rating scale 0-100
In short: (§2)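 Plants grown in 10 cm pots of sandy loam mix received acetone-dissolved compounds through a moving flat-fan nozzle. Doses ranged from 15 to 1000 g ai/ha. Pre-emerge pots were seeded one day earlier, post-emerge pots 8–21 days earlier. Fourteen days on, each pot was graded 0–100 for damage.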

[4] = system: sicklepod (Cassia obtusifolia, CASOB); assay: as above; settings: post-emerge, 14 days after application, rating scale 0-100
In short: as §2

[5] = system: johnsongrass (Sorghum halepense, SORHA); assay: as above; settings: post-emerge, 14 days after application, rating scale 0-100
In short: as §2

[6] = system: ivyleaf morningglory (Ipomoea hederacea, IPOHE); assay: as above; settings: post-emerge, 14 days after application, rating scale 0-100
In short: as §2

[7] = system: large crabgrass (Digitaria sanguinalis, DIGSA); assay: as above; settings: post-emerge, 14 days after application, rating scale 0-100
In short: as §2

[8] = system: velvetleaf (Abutilon theophrasti, ABUTH); assay: as above; settings: post-emerge, 14 days after application, rating scale 0-100
In short: as §2

[9] = system: redroot pigweed (Amaranthus retroflexus, AMARE); assay: as above; settings: post-emerge, 14 days after application
In short: as §2

[10] = system: barnyardgrass (Echinochloa crus-galli, ECHCG); assay: as above; settings: post-emerge, 14 days after application, rating scale 0-100
In short: as §2

[11] = system: green foxtail (Setaria viridis, SETVI); assay: as above; settings: post-emerge, 14 days after application, rating scale 0-100
In short: as §2

[12] = system: lambsquarters (Chenopodium album, CHEAL); assay: Pre-emerge test, greenhouse herbicide activity screening; settings: phytotoxicity rating 0-100, 14 days after application
In short: (§3)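 Sandy loam pots; pre-emerge: sown 1 d pre-spray, surface-watered after, then bottom-watered. Post-emerge: sown 8–21 d before, 2–3 leaf stage, + 0.25% v/v NIS, bottom-watered. Acetone, 187 l/ha track spray, 15–1000 g ai/ha. 0–100 injury score, day 14.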

[13] = system: sicklepod (Cassia obtusifolia, CASOB); assay: as above; settings: phytotoxicity rating 0-100, 14 days after application
In short: as §3

[14] = system: johnsongrass (Sorghum halepense, SORHA); assay: as above; settings: phytotoxicity rating 0-100, 14 days after application
In short: as §3

[15] = system: ivyleaf morningglory (Ipomoea hederacea, IPOHE); assay: as above; settings: phytotoxicity rating 0-100, 14 days after application
In short: as §3

[16] = system: large crabgrass (Digitaria sanguinalis, DIGSA); assay: as above; settings: phytotoxicity rating 0-100, 14 days after application
In short: as §3

[17] = system: velvetleaf (Abutilon theophrasti, ABUTH); assay: as above; settings: phytotoxicity rating 0-100, 14 days after application
In short: as §3

[18] = system: barnyardgrass (Echinochloa crus-galli, ECHCG); assay: as above; settings: phytotoxicity rating 0-100, 14 days after application
In short: as §3

[19] = system: green foxtail (Setaria viridis, SETVI); assay: as above; settings: phytotoxicity rating 0-100, 14 days after application
In short: as §3

[20] = system: upland rice (Oryza sp., var. Tebonnet, RICE); assay: Post-emerge test, crop safety; settings: post-emerge, 14 days after application, rating scale 0-100
In short: as §3

[21] = system: field corn (Zea mays L., var. Dekalb 535, CORN); assay: Post-emerge test, crop safety; settings: post-emerge, 14 days after application, rating scale 0-100
In short: as §3

[22] = system: redroot pigweed (Amaranthus retroflexus, AMARE); assay: Pre-emerge test, greenhouse herbicide activity screening; settings: phytotoxicity rating 0-100, 14 days after application
In short: as §3

## COc1c(Cl)cc(F)c(-n2c(=O)cc(C(F)(F)F)n(C)c2=O)c1NC(=O)Oc1ccccc1C(C)(C)C [4-27]
[1]; 63 g ai/ha
  Pre-emerge Herbicidal Activity RICE: 10
[1]; 250 g ai/ha
  Pre-emerge Herbicidal Activity RICE: 50
[2]; 63 g ai/ha
  Pre-emerge Herbicidal Activity CORN: 0
[2]; 250 g ai/ha
  Pre-emerge Herbicidal Activity CORN: 0
[3]; 63 g ai/ha
  phytotoxicity rating CHEAL: 60
[3]; 250 g ai/ha
  phytotoxicity rating CHEAL: 100
[4]; 63 g ai/ha
  phytotoxicity rating CASOB: 20
[4]; 250 g ai/ha
  phytotoxicity rating CASOB: 40
[5]; 63 g ai/ha
  phytotoxicity rating SORHA: 0
[5]; 250 g ai/ha
  phytotoxicity rating SORHA: 0
[6]; 63 g ai/ha
  phytotoxicity rating IPOHE: 70
[6]; 250 g ai/ha
  phytotoxicity rating IPOHE: 80
[7]; 63 g ai/ha
  phytotoxicity rating DIGSA: 0
[7]; 250 g ai/ha
  phytotoxicity rating DIGSA: 0
[8]; 63 g ai/ha
  phytotoxicity rating ABUTH: 70
[8]; 250 g ai/ha
  phytotoxicity rating ABUTH: 100
[9]; 63 g ai/ha, rating scale 0-100 (0 no damage, 100 complete death)
  phytotoxicity rating AMARE: 60
[9]; 250 g ai/ha, rating scale 0-100
  phytotoxicity rating AMARE: 80
[10]; 63 g ai/ha
  phytotoxicity rating ECHCG: 0
[10]; 250 g ai/ha
  phytotoxicity rating ECHCG: 0
[11]; 63 g ai/ha
  phytotoxicity rating SETVI: 0
[11]; 250 g ai/ha
  phytotoxicity rating SETVI: 10
[12]; 63 g ai/ha
  Pre-emerge Herbicidal Activity CHEAL: 80
[12]; 250 g ai/ha
  Pre-emerge Herbicidal Activity CHEAL: 100
[13]; 63 g ai/ha
  Pre-emerge Herbicidal Activity CASOB: 0
[13]; 250 g ai/ha
  Pre-emerge Herbicidal Activity CASOB: 30
[14]; 63 g ai/ha
  Pre-emerge Herbicidal Activity SORHA: 0
[14]; 250 g ai/ha
  Pre-emerge Herbicidal Activity SORHA: 0
[15]; 63 g ai/ha
  Pre-emerge Herbicidal Activity IPOHE: 20
[15]; 250 g ai/ha
  Pre-emerge Herbicidal Activity IPOHE: 50
[16]; 63 g ai/ha
  Pre-emerge Herbicidal Activity DIGSA: 0
[16]; 250 g ai/ha
  Pre-emerge Herbicidal Activity DIGSA: 0
[17]; 63 g ai/ha
  Pre-emerge Herbicidal Activity ABUTH: 80
[17]; 250 g ai/ha
  Pre-emerge Herbicidal Activity ABUTH: 100
[18]; 63 g ai/ha
  Pre-emerge Herbicidal Activity ECHCG: 0
[18]; 250 g ai/ha
  Pre-emerge Herbicidal Activity ECHCG: 0
[19]; 63 g ai/ha
  Pre-emerge Herbicidal Activity SETVI: 30
[19]; 250 g ai/ha
  Pre-emerge Herbicidal Activity SETVI: 50
[20]; 63 g ai/ha
  phytotoxicity rating RICE (crop damage): 0
[20]; 250 g ai/ha
  phytotoxicity rating RICE (crop damage): 10
[21]; 63 g ai/ha
  phytotoxicity rating CORN (crop damage): 5
[21]; 250 g ai/ha
  phytotoxicity rating CORN (crop damage): 10
[22]; 63 g ai/ha
  Pre-emerge Herbicidal Activity AMARE: 70
[22]; 250 g ai/ha
  Pre-emerge Herbicidal Activity AMARE: 100
